Results reported in patent US9067932B2, “Pyrazolopyridine kinase inhibitors” (Vertex Pharmaceuticals Incorporated, priority 2010, dated 2015).

Legend:
Type in all cases: biochemical
PKC delta kinase = PKC delta kinase (Homo sapiens, UniProt Q05655); assay: PKC delta coupled-enzyme (NADH consumption) kinase assay; conditions: 46 nM PKC delta, 150 μM ATP, 30° C., initial rate at 340 nm
Protocol: (§1) An assay buffer solution was prepared which consisted of 100 mM HEPES (pH 7.5), 10 mM MgCl2, 25 mM NaCl, 0.1 mM EDTA and 0.01% Brij. […] To 16 μL of this enzyme buffer, in a 384 well plate, was added 1 μL of VRT stock solution in DMSO. […] The enzyme reaction was initiated by the addition of 16 μL stock ATP solution prepared in assay buffer to a final assay concentration of 150 μM. Initial rate data was determined from the rate of change of absorbance at 340 nm (corresponding to stoichiometric consumption of NADH) using a Molecular Devices Spectramax plate reader (Sunnyvale, Calif.) over 15 mins at 30° C. For each Ki determination 12 data points covering the VRT concentration range of 0-20 μM were obtained in duplicate (DMSO stocks were prepared from an initial 10 mM VRT stock with subsequent 1:2 serial dilutions). Ki values were calculated from initial rate data by non-linear regression using the Prism software package (Prism 4.0a, Graphpad Software, San Diego, Calif.).

PKC theta kinase = PKC theta kinase (Homo sapiens, UniProt Q04759); assay: PKC theta coupled-enzyme (NADH consumption) kinase assay; conditions: 18 nM PKC theta, 240 μM ATP, 30° C., initial rate at 340 nm; read-out: Ki PKC theta
Chain of PKC theta kinase (Q04759 whole entry): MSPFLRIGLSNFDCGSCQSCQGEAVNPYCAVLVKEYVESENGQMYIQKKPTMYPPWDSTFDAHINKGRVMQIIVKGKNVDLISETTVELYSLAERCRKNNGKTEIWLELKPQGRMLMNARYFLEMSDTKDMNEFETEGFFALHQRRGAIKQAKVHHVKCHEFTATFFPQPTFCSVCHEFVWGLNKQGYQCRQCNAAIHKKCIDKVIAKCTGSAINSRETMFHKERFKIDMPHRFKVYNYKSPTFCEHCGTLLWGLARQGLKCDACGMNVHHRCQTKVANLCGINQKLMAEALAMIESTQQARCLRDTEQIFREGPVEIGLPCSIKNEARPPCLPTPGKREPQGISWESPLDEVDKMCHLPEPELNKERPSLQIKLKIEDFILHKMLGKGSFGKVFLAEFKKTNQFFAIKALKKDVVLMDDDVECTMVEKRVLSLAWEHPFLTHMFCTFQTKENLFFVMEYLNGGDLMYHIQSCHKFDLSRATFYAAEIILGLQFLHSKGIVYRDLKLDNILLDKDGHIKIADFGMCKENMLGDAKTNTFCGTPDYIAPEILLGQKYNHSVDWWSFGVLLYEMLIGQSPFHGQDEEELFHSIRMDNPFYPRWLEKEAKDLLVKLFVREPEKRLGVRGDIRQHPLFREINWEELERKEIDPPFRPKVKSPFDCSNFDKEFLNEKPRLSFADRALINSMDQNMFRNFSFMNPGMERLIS
Protocol: as §1, with “To 60” for “To 16”, “added 2” for “added 1”, “of 5” for “of 16”, “of 240” for “of 150”

PKC alpha kinase = PKC alpha kinase (Homo sapiens, UniProt P17252); assay: PKC alpha coupled-enzyme (NADH consumption) kinase assay; conditions: 4.5 nM PKC alpha, 130 μM ATP, 100 μM CaCl2, 30° C.; read-out: Ki PKC alpha
Protocol: An assay buffer solution was prepared which consisted of 100 mM HEPES (pH 7.5), 10 mM MgCl2, 25 mM NaCl, 0.1 mM EDTA, 100 μM CaCl2 and 0.01% Brij. An enzyme buffer containing reagents to final assay concentrations of 0.002% Triton X-100, 100 μg/mL Phosphatidylserine, 20 μg/mL Diacylglycerol, 360 μM NADH, 3 mM phosphoenolpyruvate, 70 μg/mL pyruvate kinase, 24 μg/mL lactate dehydrogenase, 2 mM DTT, 150 μM substrate peptide ([…] SEQ ID NO. 1) and 4.5 nM PKC alpha kinase was prepared in assay buffer. To 16 μL of this enzyme buffer, in a 384 well plate, was added 1 μL of VRT stock solution in DMSO. The mixture was allowed to equilibrate for 10 mins at 30° C. The enzyme reaction was initiated by the addition of 16 μL stock ATP solution prepared in assay buffer to a final assay concentration of 130 μM. Initial rate data was determined from the rate of change of absorbance at 340 nm (corresponding to stoichiometric consumption of NADH) using a Molecular Devices Spectramax plate reader (Sunnyvale, Calif.) over 15 mins at 30° C. For each Ki determination 12 data points covering the VRT concentration range of 0-20 μM were obtained in duplicate (DMSO stocks were prepared from an initial 10 mM VRT stock with subsequent 1:2 serial dilutions). Ki values were calculated from initial rate data by non-linear regression using the Prism software package (Prism 4.0a, Graphpad Software, San Diego, Calif.).

Chain of PKC delta kinase (Q05655 whole entry): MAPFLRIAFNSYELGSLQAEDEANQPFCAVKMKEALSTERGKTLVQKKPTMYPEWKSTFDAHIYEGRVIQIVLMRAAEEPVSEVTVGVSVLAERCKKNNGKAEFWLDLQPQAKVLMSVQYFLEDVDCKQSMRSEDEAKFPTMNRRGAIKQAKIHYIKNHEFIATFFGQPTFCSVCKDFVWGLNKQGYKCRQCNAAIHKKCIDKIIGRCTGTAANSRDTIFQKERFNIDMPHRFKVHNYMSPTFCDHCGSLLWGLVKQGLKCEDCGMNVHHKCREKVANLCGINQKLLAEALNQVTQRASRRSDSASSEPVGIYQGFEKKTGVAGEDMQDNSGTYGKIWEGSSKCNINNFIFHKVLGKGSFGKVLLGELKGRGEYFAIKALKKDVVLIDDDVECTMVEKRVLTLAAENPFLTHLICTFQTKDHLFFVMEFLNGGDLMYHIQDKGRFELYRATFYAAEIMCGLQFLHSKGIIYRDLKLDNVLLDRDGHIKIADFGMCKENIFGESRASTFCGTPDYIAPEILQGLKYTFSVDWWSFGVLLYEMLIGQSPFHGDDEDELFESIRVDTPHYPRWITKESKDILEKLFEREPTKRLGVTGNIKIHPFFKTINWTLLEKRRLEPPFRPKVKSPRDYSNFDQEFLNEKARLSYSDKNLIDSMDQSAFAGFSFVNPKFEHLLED

Row | SMILES | Ki (PKC delta kinase) [nM] | Ki (PKC theta kinase) [nM] | Ki (PKC alpha kinase) [nM]
1 | CC(C)(C)C(O)C1CN(c2nc(-c3n[nH]c4ncccc34)c(F)cc2Cl)CCN1 (stereo not drawn) [Compound 26] | < 10 | < 1 | < 500
2 | OC(C1CC1)C1CN(c2nc(-c3n[nH]c4ncccc34)c(F)cc2Cl)CCN1 (stereo not drawn) [Compound 31] | < 50 | < 1 | < 2800

More lines, now with the values ahead:

Row | Ki (PKC delta kinase) [nM] | Ki (PKC theta kinase) [nM] | Ki (PKC alpha kinase) [nM] | SMILES
3 | < 500 | < 50 | > 1250 | CCC(O)C1CN(c2nc(-c3n[nH]c4ncccc34)c(F)cc2Cl)CCN1 (stereo not drawn) [Compound 18]
4 | < 50 | < 1 | < 2800 | CC(C)(O)[C@@](C)(O)[C@@H]1CN(c2nc(-c3n[nH]c4ncccc34)c(F)cc2Cl)CCN1 [Compound 42]
5 | < 50 | < 1 | < 2800 | CC[C@@H](O)[C@@H]1CN(c2nc(-c3n[nH]c4ncccc34)c(F)cc2F)CCN1 [Compound 8]
